Reference: ChEMBL document CHEMBL1909046, “DrugMatrix in vitro pharmacology data”

How the values were obtained:
[1] = DRUGMATRIX: Calcium Channel Type L, Dihydropyridine radioligand binding (ligand: [3H] Nitrendipine); format: cell membranes, Rattus norvegicus, Wistar, Cerebral cortex, Membrane; details: Not Active = under 50% inhibition at 10 µM
Thromboxane-A synthase = target: T1, Thromboxane-A synthase (Homo sapiens, UniProt P24557); assay: biochemical; format: tissue-based, Platelet; details: platelet;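 note: enzyme inhibition assay with PGH2 supplied as substrate; in other assays of this panel Not Active means under 50% inhibition at 10 µM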
T1 sequence (P24557 whole entry): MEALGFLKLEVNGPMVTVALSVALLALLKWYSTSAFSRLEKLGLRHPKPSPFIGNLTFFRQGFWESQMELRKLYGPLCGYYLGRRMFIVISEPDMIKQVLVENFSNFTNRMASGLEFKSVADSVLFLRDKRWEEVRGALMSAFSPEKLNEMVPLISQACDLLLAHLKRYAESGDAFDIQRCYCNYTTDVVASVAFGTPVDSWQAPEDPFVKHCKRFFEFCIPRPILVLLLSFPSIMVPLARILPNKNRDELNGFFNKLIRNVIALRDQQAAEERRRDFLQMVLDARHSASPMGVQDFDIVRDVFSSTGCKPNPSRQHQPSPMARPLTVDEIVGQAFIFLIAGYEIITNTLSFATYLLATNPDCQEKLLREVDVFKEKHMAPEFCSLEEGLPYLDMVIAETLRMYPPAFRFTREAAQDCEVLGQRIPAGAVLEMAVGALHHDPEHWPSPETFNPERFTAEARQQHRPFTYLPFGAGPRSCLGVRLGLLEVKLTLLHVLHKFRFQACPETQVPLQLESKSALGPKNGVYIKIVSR

Carbonic anhydrase 2 = Carbonic anhydrase 2 (Homo sapiens, UniProt P00918); assay: DRUGMATRIX: Carbonic Anhydrase II enzyme inhibition (substrate: 4-Nitrophenyl acetate (4-NPA)); format: tissue-based; details: erythrocyte; Not Active = under 50% inhibition at 10 µM
[2] = target: T2, Muscarinic acetylcholine receptor M4 (Homo sapiens, UniProt P08173); format: cell membranes, CHO-K1, Membrane; details: cho-k1; note: in other assays of this panel Not Active means under 50% inhibition at 10 µM
T2 sequence (P08173 whole entry): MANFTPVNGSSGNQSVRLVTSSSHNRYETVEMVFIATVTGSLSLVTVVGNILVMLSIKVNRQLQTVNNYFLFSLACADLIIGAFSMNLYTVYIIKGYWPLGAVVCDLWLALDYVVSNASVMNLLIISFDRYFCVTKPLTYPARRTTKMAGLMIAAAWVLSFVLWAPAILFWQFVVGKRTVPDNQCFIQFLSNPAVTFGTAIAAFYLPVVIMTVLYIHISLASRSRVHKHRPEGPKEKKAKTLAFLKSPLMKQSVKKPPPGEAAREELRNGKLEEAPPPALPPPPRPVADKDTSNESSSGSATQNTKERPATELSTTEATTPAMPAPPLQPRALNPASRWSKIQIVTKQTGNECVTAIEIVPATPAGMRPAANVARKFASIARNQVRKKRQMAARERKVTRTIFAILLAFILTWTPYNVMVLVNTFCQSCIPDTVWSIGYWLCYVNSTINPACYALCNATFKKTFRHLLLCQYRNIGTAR

Neutrophil elastase = target: T3, Neutrophil elastase (Homo sapiens, UniProt P08246); format: tissue-based;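 note: inhibition of neutrophil elastase enzyme activity, measured with a p-nitroanilide-linked peptide substrate; in other assays of this panel Not Active means under 50% inhibition at 10 µM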
T3 sequence (P08246 whole entry): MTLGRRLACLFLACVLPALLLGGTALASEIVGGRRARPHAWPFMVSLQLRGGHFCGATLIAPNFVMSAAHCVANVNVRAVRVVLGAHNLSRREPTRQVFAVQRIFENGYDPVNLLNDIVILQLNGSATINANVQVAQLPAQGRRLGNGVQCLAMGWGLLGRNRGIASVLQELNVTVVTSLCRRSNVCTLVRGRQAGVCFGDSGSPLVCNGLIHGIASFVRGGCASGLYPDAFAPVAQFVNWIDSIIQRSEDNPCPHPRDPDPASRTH

[3] = target: Tyrosine-protein kinase Fyn (Homo sapiens, UniProt P06241); assay: biochemical; format: cell-based, Insect cells; details: insect cells;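 note: enzymatic inhibition of Fyn kinase activity measured with Poly(Glu:Tyr) as the phosphorylation substrate; in other assays of this panel Not Active means under 50% inhibition at 10 µM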
Tyrosine-protein kinase Fyn, sequence (P06241 whole entry): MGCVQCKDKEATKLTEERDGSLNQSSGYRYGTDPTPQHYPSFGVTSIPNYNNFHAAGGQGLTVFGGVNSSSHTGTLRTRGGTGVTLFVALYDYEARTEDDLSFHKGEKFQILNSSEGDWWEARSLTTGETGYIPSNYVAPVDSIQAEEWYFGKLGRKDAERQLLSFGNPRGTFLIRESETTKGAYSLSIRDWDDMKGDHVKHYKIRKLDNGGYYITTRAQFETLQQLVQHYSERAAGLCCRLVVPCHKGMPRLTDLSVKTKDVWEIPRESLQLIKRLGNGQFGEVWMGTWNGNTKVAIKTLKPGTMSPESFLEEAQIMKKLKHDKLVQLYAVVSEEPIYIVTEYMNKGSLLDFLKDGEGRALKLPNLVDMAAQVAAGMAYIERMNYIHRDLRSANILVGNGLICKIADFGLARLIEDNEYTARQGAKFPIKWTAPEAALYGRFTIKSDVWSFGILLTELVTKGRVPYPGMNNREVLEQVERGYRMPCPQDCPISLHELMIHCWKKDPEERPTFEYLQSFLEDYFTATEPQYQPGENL

SODIUM ORTHOVANAD
Not Active: IC50 [1] | Ki [1] | IC50 (Thromboxane-A synthase) | Ki (Thromboxane-A synthase) | IC50 (Carbonic anhydrase 2) | Ki (Carbonic anhydrase 2) | IC50 [2] | Ki [2] | IC50 (Neutrophil elastase) | Ki (Neutrophil elastase) | IC50 [3] | Ki [3]
